Data: US8802597B2, “Herbicidal pyrimidines” (E I du Pont de Nemours and Company, priority 2003, dated 2014)
Where two headings read alike, the source gives them in different places.

How the values were obtained:
Format in all cases: in vivo
[1] = test system: Surinam grass (Brachiaria decumbens); test: Test B pre/postemergence; settings: Urochloa decumbens; for pest or weed control at 125 g/ha: 125 g ai/ha; for pest or weed control at 500 g/ha: 500 g ai/ha
Outline: (§1)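 Scores reflect visual comparison with untreated controls, where 0 means no effect and 100 complete control. Plants stayed 13 to 15 days in the greenhouse after pre- or postemergence treatment with compounds carried in a non-phytotoxic solvent and surfactant.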

[2] = test system: barnyardgrass (Echinochloa crus-galli); test: Test B pre/postemergence; settings: Echinochloa crus-galli; for pest or weed control at 125 g/ha: 125 g ai/ha; for pest or weed control at 500 g/ha: 500 g ai/ha
Outline: as §1

[3] = test system: cocklebur (Xanthium strumarium); test: Test B pre/postemergence; settings: Xanthium strumarium; for pest or weed control at 125 g/ha: 125 g ai/ha; for pest or weed control at 500 g/ha: 500 g ai/ha
Outline: as §1

corn (Zea mays) = test: Test B pre/postemergence; settings: Zea mays
Outline: as §1

[4] = test system: crabgrass (Digitaria sanguinalis); test: Test B pre/postemergence; settings: Digitaria sanguinalis; for pest or weed control at 125 g/ha: 125 g ai/ha; for pest or weed control at 500 g/ha: 500 g ai/ha
Outline: as §1

[5] = test system: giant foxtail (Setaria faberii); test: Test B pre/postemergence; settings: Setaria faberi; for pest or weed control at 125 g/ha: 125 g ai/ha; for pest or weed control at 500 g/ha: 500 g ai/ha
Outline: as §1

[6] = test system: lambsquarters (Chenopodium album); test: Test B pre/postemergence; settings: Chenopodium album; for pest or weed control at 125 g/ha: 125 g ai/ha; for pest or weed control at 500 g/ha: 500 g ai/ha
Outline: as §1

[7] = test system: morningglory (Ipomoea coccinea); test: Test B pre/postemergence; settings: Ipomoea; for pest or weed control at 125 g/ha: 125 g ai/ha; for pest or weed control at 500 g/ha: 500 g ai/ha
Outline: as §1

[8] = test system: pigweed (Amaranthus retroflexus); test: Test B pre/postemergence; settings: Amaranthus retroflexus; for pest or weed control at 125 g/ha: 125 g ai/ha; for pest or weed control at 500 g/ha: 500 g ai/ha
Outline: as §1

[9] = test system: velvetleaf (Abutilon theophrasti); test: Test B pre/postemergence; settings: Abutilon theophrasti; for pest or weed control at 125 g/ha: 125 g ai/ha; for pest or weed control at 500 g/ha: 500 g ai/ha
Outline: as §1

[10] = test system: wheat (Triticum aestivum); test: Test B pre/postemergence; settings: Triticum aestivum; for plant injury at 125 g/ha: 125 g ai/ha; for plant injury at 500 g/ha: 500 g ai/ha
Outline: as §1

[11] = test system: blackgrass (Alopecurus myosuroides); test: Test B postemergence; settings: Alopecurus myosuroides, post-emergence
Outline: as §1

wild oat (Avena fatua) = test: Test B postemergence; settings: Avena fatua, post-emergence
Outline: as §1

[12] = test system: barnyardgrass (Echinochloa crus-galli); test: Test B flooded paddy test; settings: Echinochloa crus-galli, Flood, 1000 g ai/ha; scale 0 (no effect) to 100 (complete control); read-out: Plant response rating, Barnyardgrass
Outline: (§2)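 Plants were grown to the 2-leaf stage before treatment, then kept in a greenhouse for 13 to 15 days. Injury was rated visually against untreated controls on a 0 to 100 scale, where 0 is no effect and 100 is complete control.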

[13] = test system: duck salad (Heteranthera limosa); test: Test B flooded paddy test; settings: Heteranthera limosa, Flood, 1000 g ai/ha; scale 0 to 100; read-out: Plant response rating, Ducksalad
Outline: as §2

rice (Oryza sativa) = test: Test B flooded paddy test; settings: Oryza sativa, Flood, 1000 g ai/ha; scale 0 to 100; read-out: Plant response rating, Rice
Outline: as §2

[14] = test system: umbrella sedge (Cyperus difformis); test: Test B flooded paddy test; settings: Cyperus difformis, Flood, 1000 g ai/ha; scale 0 to 100; read-out: Plant response rating, Sedge, Umbrella
Outline: as §2

With `COC(=O)c1nc(C2CC2)nc(N)c1F` [Compound 25] the pest or weed control at 125 g/ha ([1]; post-emergence, Postemergence, scale 0 to 100 (0 no effect, 100 complete control), read-out: Surinam Grass plant response rating) was 50%, the pest or weed control at 500 g/ha ([1]; post-emergence, Postemergence, scale 0 to 100, read-out: Plant response rating, Surinam Grass) was 70% and the pest or weed control at 125 g/ha ([1]; pre-emergence, Preemergence, scale 0 to 100 (0 no effect, 100 complete control), read-out: Plant response rating, Surinam Grass) was 20%. It also gave a pest or weed control at 500 g/ha ([1]; pre-emergence, Preemergence, scale 0 to 100 (0 no effect, 100 complete control), read-out: Surinam Grass plant response rating) of 70%, a pest or weed control at 125 g/ha ([2]; post-emergence, Postemergence, scale 0 to 100 (0 no effect, 100 complete control), read-out: Barnyardgrass plant response rating) of 40% and a pest or weed control at 500 g/ha ([2]; post-emergence, Postemergence, scale 0 to 100, read-out: Plant response rating, Barnyardgrass) of 80%. It also gave a pest or weed control at 125 g/ha ([2]; pre-emergence, Preemergence, scale 0 to 100 (0 no effect, 100 complete control), read-out: Plant response rating, Barnyardgrass) of 20%, a pest or weed control at 500 g/ha ([2]; pre-emergence, Preemergence, scale 0 to 100 (0 no effect, 100 complete control), read-out: Barnyardgrass plant response rating) of 60% and a pest or weed control at 125 g/ha ([3]; post-emergence, Postemergence, scale 0 to 100 (0 no effect, 100 complete control), read-out: Cocklebur plant response rating) of 90%. For the same compound, the pest or weed control at 500 g/ha ([3]; post-emergence, Postemergence, scale 0 to 100, read-out: Plant response rating, Cocklebur) was 90%, the pest or weed control at 125 g/ha ([3]; pre-emergence, Preemergence, scale 0 to 100 (0 no effect, 100 complete control), read-out: Plant response rating, Cocklebur) was 80% and the pest or weed control at 500 g/ha ([3]; pre-emergence, Preemergence, scale 0 to 100 (0 no effect, 100 complete control), read-out: Cocklebur plant response rating) was 90%. For the same compound, the plant injury at 125 g/ha (corn (Zea mays); post-emergence, Postemergence, 125 g ai/ha, scale 0 to 100 (0 no effect, 100 complete control), read-out: Corn plant response rating) was 0%, the Corn plant response rating (crop injury, 0 = no effect, 100 = complete kill) at 500 g/ha (corn (Zea mays); post-emergence, Postemergence, 500 g ai/ha, scale 0 to 100) was 30% and the Corn plant response rating (crop injury, 0 = no effect, 100 = complete kill) at 125 g/ha (corn (Zea mays); pre-emergence, Preemergence, 125 g ai/ha, scale 0 to 100 (0 no effect, 100 complete control)) was 0%. The plant injury at 500 g/ha (corn (Zea mays); pre-emergence, Preemergence, 500 g ai/ha, scale 0 to 100 (0 no effect, 100 complete control), read-out: Corn plant response rating) was 0%, the pest or weed control at 125 g/ha ([4]; post-emergence, Postemergence, scale 0 to 100 (0 no effect, 100 complete control), read-out: Crabgrass plant response rating) was 60% and the pest or weed control at 500 g/ha ([4]; post-emergence, Postemergence, scale 0 to 100, read-out: Plant response rating, Crabgrass) was 80%. It also gave a pest or weed control at 125 g/ha ([4]; pre-emergence, Preemergence, scale 0 to 100 (0 no effect, 100 complete control), read-out: Plant response rating, Crabgrass) of 60%, a pest or weed control at 500 g/ha ([4]; pre-emergence, Preemergence, scale 0 to 100 (0 no effect, 100 complete control), read-out: Crabgrass plant response rating) of 70% and a pest or weed control at 125 g/ha ([5]; post-emergence, Postemergence, scale 0 to 100 (0 no effect, 100 complete control), read-out: Foxtail, Giant plant response rating) of 50%. For the same compound, the pest or weed control at 500 g/ha ([5]; post-emergence, Postemergence, scale 0 to 100, read-out: Plant response rating, Foxtail, Giant) was 80%, the pest or weed control at 125 g/ha ([5]; pre-emergence, Preemergence, scale 0 to 100 (0 no effect, 100 complete control), read-out: Plant response rating, Foxtail, Giant) was 40% and the pest or weed control at 500 g/ha ([5]; pre-emergence, Preemergence, scale 0 to 100 (0 no effect, 100 complete control), read-out: Foxtail, Giant plant response rating) was 80%. It also gave a pest or weed control at 125 g/ha ([6]; post-emergence, Postemergence, scale 0 to 100 (0 no effect, 100 complete control), read-out: Lambsquarters plant response rating) of 90%, a pest or weed control at 500 g/ha ([6]; post-emergence, Postemergence, scale 0 to 100, read-out: Plant response rating, Lambsquarters) of 90% and a pest or weed control at 125 g/ha ([6]; pre-emergence, Preemergence, scale 0 to 100 (0 no effect, 100 complete control), read-out: Plant response rating, Lambsquarters) of 90%. It also gave a pest or weed control at 500 g/ha ([6]; pre-emergence, Preemergence, scale 0 to 100 (0 no effect, 100 complete control), read-out: Lambsquarters plant response rating) of 90%, a pest or weed control at 125 g/ha ([7]; post-emergence, Postemergence, scale 0 to 100 (0 no effect, 100 complete control), read-out: Morningglory plant response rating) of 90% and a pest or weed control at 500 g/ha ([7]; post-emergence, Postemergence, scale 0 to 100, read-out: Plant response rating, Morningglory) of 90%. The pest or weed control at 125 g/ha ([7]; pre-emergence, Preemergence, scale 0 to 100 (0 no effect, 100 complete control), read-out: Plant response rating, Morningglory) was 80%, the pest or weed control at 500 g/ha ([7]; pre-emergence, Preemergence, scale 0 to 100 (0 no effect, 100 complete control), read-out: Morningglory plant response rating) was 90% and the pest or weed control at 125 g/ha ([8]; post-emergence, Postemergence, scale 0 to 100 (0 no effect, 100 complete control), read-out: Pigweed plant response rating) was 90%. For the same compound, the pest or weed control at 500 g/ha ([8]; post-emergence, Postemergence, scale 0 to 100, read-out: Plant response rating, Pigweed) was 100%, the pest or weed control at 125 g/ha ([8]; pre-emergence, Preemergence, scale 0 to 100 (0 no effect, 100 complete control), read-out: Plant response rating, Pigweed) was 80% and the pest or weed control at 500 g/ha ([8]; pre-emergence, Preemergence, scale 0 to 100 (0 no effect, 100 complete control), read-out: Pigweed plant response rating) was 90%. It also gave a pest or weed control at 125 g/ha ([9]; post-emergence, Postemergence, scale 0 to 100 (0 no effect, 100 complete control), read-out: Velvetleaf plant response rating) of 60%, a pest or weed control at 500 g/ha ([9]; post-emergence, Postemergence, scale 0 to 100, read-out: Plant response rating, Velvetleaf) of 70% and a pest or weed control at 125 g/ha ([9]; pre-emergence, Preemergence, scale 0 to 100 (0 no effect, 100 complete control), read-out: Plant response rating, Velvetleaf) of 70%. The pest or weed control at 500 g/ha ([9]; pre-emergence, Preemergence, scale 0 to 100 (0 no effect, 100 complete control), read-out: Velvetleaf plant response rating) was 80%, the plant injury at 125 g/ha ([10]; post-emergence, Postemergence, scale 0 to 100 (0 no effect, 100 complete control), read-out: Wheat plant response rating) was 20% and the plant injury at 500 g/ha ([10]; post-emergence, Postemergence, scale 0 to 100, read-out: Plant response rating, Wheat) was 30%. It also gave a plant injury at 125 g/ha ([10]; pre-emergence, Preemergence, scale 0 to 100 (0 no effect, 100 complete control), read-out: Plant response rating, Wheat) of 50%, a plant injury at 500 g/ha ([10]; pre-emergence, Preemergence, scale 0 to 100 (0 no effect, 100 complete control), read-out: Wheat plant response rating) of 60% and a pest or weed control at 125 g/ha ([11]; 125 g ai/ha, scale 0 to 100 (0 no effect, 100 complete control), read-out: Blackgrass plant response rating) of 10%. It also gave a pest or weed control at 500 g/ha ([11]; 500 g ai/ha, scale 0 to 100, read-out: Plant response rating, Blackgrass) of 60%, a pest or weed control at 125 g/ha (wild oat (Avena fatua); 125 g ai/ha, scale 0 to 100 (0 no effect, 100 complete control), read-out: Oat, Wild plant response rating) of 10% and a pest or weed control at 500 g/ha (wild oat (Avena fatua); 500 g ai/ha, scale 0 to 100, read-out: Plant response rating, Oat, Wild) of 20%. The pest or weed control at 1000 g/ha [12] was 30%, the pest or weed control at 1000 g/ha [13] was 40% and the plant injury at 1000 g/ha (rice (Oryza sativa)) was 30%. For the same compound, the pest or weed control at 1000 g/ha [14] was 40%.
